Source: patent US8367332B2, “Detection and quantification of abasic site formation in vivo” (Case Western Reserve University, priority 2008, dated 2013)

Experiments:
AP sites [1] = experiment: In vivo blocking experiment with unlabelled MX (microPET, glioma tumors); parameters: species or system mice; settings: TMZ 80 mg/kg; unlabelled MX 2-10 mg/kg 30 min before [^11C]MX 2 mCi/kg; p value=0.003
Experimental: FIG. 4 illustrates; (A) plots of time-radioactivity courses of [^11C]MX in the glioma tumors before and after blocking by unlabelled MX; and (B) a graph showing average SUV between 0-60 min (n=4, where n is the number of tumors imaged and analyzed). Decrease of radioactivity concentration indicates in vivo blocking of AP binding sites by unlabeled MX (p value=0.003).
Thus, we conducted in vivo blocking experiment in tumor mice with unlabelled MX as a further test of whether the difference in radioactivity concentrations between TMZ-treated and untreated tumors is due to specific binding of [^11C]MX to AP sites. For this purpose, 4 tumor-bearing mice were treated with TMZ (80 mg/kg) for 10 min. Following the treatment, two mice were injected with unlabelled MX (2-10 mg/kg) and two were injected with vehicle control. Thirty minutes later, 2 mCi/kg of [^11C]MX was administered to each mouse and microPET imaging was performed. In each case, a vehicle-treated and an unlabeled MX-treated mouse were imaged side-by-side. Dynamic acquisition was carried out for 60 min in list mode.

AP sites [2] = experiment: ARP assay of AP sites in A375 melanoma cells; type: cell-based; settings: 12.5 mM co-treatment with TMZ, 24 hr
Experimental: FIG. 5 illustrates a graph showing AP sites increased in melanoma cells (A375) after treatment with TMZ in a dose-dependent manner. Using ARP assay, formation of AP sites in A375 melanoma cells were measured. Cells were treated with TMZ (0-1500 μM) alone or TMZ plus MX (12.5 mM) for 24 hr for a dose-dependent assay (black), or treated with TMZ and MX (12.5 mM) for 24 hr, or treated with TMZ and F422 (12.5 mM) for 24 hours.

AP sites [3] = experiment: microPET of [^11C]MX in melanoma (WM164) xenografts, TMZ-treated vs non-treated; type: in vivo, mice; settings: melanoma xenograft
Experimental: (§1) Melanoma and glioma xenografts were prepared according to previously published procedures. Briefly, glioma (U87) and melanoma (WM164) tumor cells (5×10^6) were injected into the bilateral flanks of female athymic NRC nude mice (6-8 weeks of age). When the volume of tumor nodules reached 150-200 mm^3, mice are randomly assigned to control or treatment groups (4 mice/group).
(§2) Following MRI studies, the mice were transferred to a Concord R4 microPET scanner under anesthesia. The same holder was used for microPET studies so that the tumor positions of the mice remain unchanged in order to facilitate image coregistration with MRI. Subsequently, dynamic microPET scans were performed over 60 min in a list mode, immediately after a bolus injection of ca. 500 μCi of [^11C]MX via the tail vein. Body temperature in the anesthetized animals was monitored using a rectal temperature probe and maintained at 37+/−2° C. with a heating lamp or a heating pad.
(§3) Following MRI and microPET studies, we conducted quantitative image analysis in order to evaluate the in vivo pharmacokinetic profiles of [^11C]MX in tumor tissues. We defined the tumor tissues as the region of interest (ROI) through coregistration of microPET images with MRI images. The co-registered images were used for quantitative image analysis to determine [^11C]MX uptake and retention associated with tumor tissues. The radioactivity concentration in the tumor regions is expressed in terms of standard uptake volume (SUV) [(μCi/cc)/(uCi/g)] as a function of time.
Because TMZ, like dacarbazine, has been used in the treatment patients with metastatic malignant melanoma, we first conducted microPET studies in human (WM164) melanoma xenograft tumor model. In each experiment, two mice bearing melanoma xenografts were used, one treated with TMZ (80 mg/kg) to induce DNA damage and the other used as negative control. Prior to microPET scans, the mice were placed in a 7T MRI scanner and T2-weighted MRI images were acquired following the above-mentioned protocol. […]

AP sites [4] = experiment: microPET of [^11C]MX in flank glioma (U87) xenografts, TMZ-treated vs non-treated; type: in vivo, mice; settings: flank glioma xenograft; TMZ 80 mg/kg; 60 min scan
Experimental: as §1
as §2, with “Subsequently, dynamic microPET scans were performed over 60 min in a list mode, immediately after a bolus injection of ca. 500 μCi of [^11C]MX via the tail vein.” left out
as §3, with “We defined the tumor tissues as the region of interest (ROI) through coregistration of microPET images with MRI images.” left out
Malignant glioma is another type of cancer that can be effectively treated with TMZ because TMZ can readily penetrate the blood-brain barrier. […]

| SMILES | concentration of tumor-associated radioactivity after blocking with unlabelled MX (AP sites [1]) | ARP detected AP sites on co-treatment with TMZ (AP sites [2]) | radioactivity concentration in tumor, TMZ-treated vs non-treated mice (AP sites [3]; TMZ 80 mg/kg, 10 min post injection of [^11C]MX (ca. 2 mCi/kg i.v.)) [fold] | tumor uptake of [^11C]MX in TMZ-treated vs non-TMZ treated mice (AP sites [3]; TMZ 80 mg/kg, 60 min scan) | entry of [^11C]MX into tumor tissue (AP sites [3]; i.v. ca. 2 mCi/kg, microPET) | retention of [^11C]MX in tumor regions (AP sites [4]) |
| --- | --- | --- | --- | --- | --- | --- |
| CON [MX, methoxyamine] | significantly decreased | reduced the ARP detected AP sites |  |  |  |  |
| [11CH3]ON [[^11C]MX, (^11C)methoxyamine] |  |  | 1.6 | increased uptake | readily entered the tumor tissue at early time points | higher in TMZ-treated tumor regions than in non-treated tumor regions |
